Earlier results as cited in patent US8415362B2, “Pyrazolyl substituted pyrrolo[2,3-b]pyrimidines as Janus kinase inhibitors” (Incyte Corporation, priority 2005, dated 2013).

Experiments:
[1] = tested on: IL-6-dependent MM cell lines
[2] = some patients
[3] = tested on: myeloid dendritic cells (DCs); details: DCs arrested at an immature level
JAK3 = target: T1, JAK3 (Mus musculus, UniProt Q62137)
T1 construct: host or cells: NOD mouse (in vivo)
T1 sequence (Q62137 1-1100): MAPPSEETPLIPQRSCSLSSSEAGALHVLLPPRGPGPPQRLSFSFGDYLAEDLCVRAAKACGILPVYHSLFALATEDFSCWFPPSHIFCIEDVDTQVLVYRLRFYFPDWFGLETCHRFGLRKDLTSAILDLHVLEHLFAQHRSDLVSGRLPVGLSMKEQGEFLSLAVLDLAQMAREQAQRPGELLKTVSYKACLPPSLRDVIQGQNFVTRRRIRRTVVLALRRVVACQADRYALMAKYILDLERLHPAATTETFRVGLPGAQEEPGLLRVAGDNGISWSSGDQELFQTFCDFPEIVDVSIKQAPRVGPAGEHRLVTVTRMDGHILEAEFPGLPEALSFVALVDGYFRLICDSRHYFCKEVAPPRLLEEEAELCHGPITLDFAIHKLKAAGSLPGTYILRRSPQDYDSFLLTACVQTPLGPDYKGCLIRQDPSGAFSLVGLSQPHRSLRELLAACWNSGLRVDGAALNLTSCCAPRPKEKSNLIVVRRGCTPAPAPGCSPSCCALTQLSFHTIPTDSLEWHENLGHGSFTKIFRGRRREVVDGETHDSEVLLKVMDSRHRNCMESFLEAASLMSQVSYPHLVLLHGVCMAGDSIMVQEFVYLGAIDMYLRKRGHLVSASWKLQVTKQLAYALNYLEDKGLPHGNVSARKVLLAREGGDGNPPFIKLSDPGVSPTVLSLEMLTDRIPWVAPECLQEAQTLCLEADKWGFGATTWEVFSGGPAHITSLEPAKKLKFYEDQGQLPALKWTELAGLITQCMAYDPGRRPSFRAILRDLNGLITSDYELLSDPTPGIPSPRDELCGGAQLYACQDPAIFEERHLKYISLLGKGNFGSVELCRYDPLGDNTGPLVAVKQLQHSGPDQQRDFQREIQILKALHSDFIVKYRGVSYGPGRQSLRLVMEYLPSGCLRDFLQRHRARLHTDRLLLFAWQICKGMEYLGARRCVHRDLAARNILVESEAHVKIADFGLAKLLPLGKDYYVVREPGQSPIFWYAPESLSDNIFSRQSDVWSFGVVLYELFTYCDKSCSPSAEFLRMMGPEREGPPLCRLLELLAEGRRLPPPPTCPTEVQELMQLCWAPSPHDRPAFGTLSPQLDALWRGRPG

## N#C/C(=C\c1ccc(O)c(O)c1)C(=O)NCc1ccccc1 [tyrphostin AG490]
[1]; IL-6-dependent MM cell lines
  ERK2 and STAT3 phosphorylation: inhibited
  JAK2 kinase activity: inhibited
  apoptosis: induced
  cell proliferation: suppressed
[1]; in some cases, then protects the tumor cells from death
  dormancy of tumor cells: induce dormancy of tumor cells

## C#Cc1cccc(Nc2ncnc3cc(OCCOC)c(OCCOC)cc23)c1 [Tarceva]
[2]
  acneiform rash: induced acneiform rash

## COc1cc2ncnc(Nc3ccc(O)c(Br)c3)c2cc1OC [WHI-P-154]
[3]
  CD40-induced effects (JAK3 activity, costimulatory molecule expression, IL-12 production, allogeneic stimulatory capacity): prevented these effects

## COc1cc2ncnc(Nc3ccc(O)cc3)c2cc1OC [JANEX-1]
JAK3; NOD mouse model of autoimmune type I diabetes
  onset of diabetes: delayed the onset of diabetes
JAK3; mouse, in vivo
  immunomodulatory activity: potent immunomodulatory activity
